The source of these data is patent publication EP0288647B1, “Derivatives of 5-[2-(1-pyrrolidinyl)ethoxy]-p-cymene, process for their preparation, and medicaments containing these derivatives” (INSTITUT DE RECHERCHES CHIMIQUES ET BIOLOGIQUES APPLIQUEES …, priority 1987, dated 1988).

Data set [1] is described as follows: Acute toxicity, lethal dose 50 after oral and intravenous administration. In kind it is in vivo, souris. The settings on record: mouse; for DL 50 I.V.: intravenous administration; for DL 50 P.O.: oral administration. The source says:
Les doses létales 50 suivantes ont été obtenues après administration orale (P.O.) et intraveineuse (I.V.) des substances chez la souris.
Les résultats obtenus sont consignés dans le tableau I. TABLEAU I

Data set [2] relates to canal déférent isolé du rat. The data set can be described thus: In vitro α-adrenolytic activity: antagonism of noradrenaline contractions of isolated rat vas deferens. In kind it is cell-based. The source says:
(§1) Elle a été étudiée sur le canal déférent du rat et sur l'urètre du lapin.
(§2) La noradrénaline provoque des contractions du canal déférent isolé du rat et de l'urètre isolé du lapin. La présence dans le bain de l'organe de substances α-bloquantes antagonise ces contractions : l'utilisation de concentrations croissantes de substances α-bloquantes permet de calculer : • la pA₂ des composés sur le canal déférent du rat; la pA₂ étant le logarithme changé de signe de la concentration molaire du produit en présence de laquelle il faut multiplier par deux la concentration de noradrénaline pour obtenir le même effet qu'en l'absence du produit; • la pD'₂ des composés sur l'urètre du lapin; la pd'₂ étant le logarithme changé de signe de la concentration molaire du produit en présence de laquelle l'activité contracturante de la noradrénaline est divisée par deux.

Another data set concerns urètre isolé du lapin. Nature of the data set: In vitro α-adrenolytic activity: antagonism of noradrenaline contractions of isolated rabbit urethra. In kind it is cell-based.
Description: as §1, §2

Data set [3] relates to toxicité de la noradrénaline. Nature of the data set: In vivo adrenolytic activity: protection against death caused by i.v. noradrenaline. The settings on record: rat, 30 min before noradrenaline 0,4 mg/kg⁻¹ I.V. As for the experimental part:
La noradrénaline injectée à fortes doses par voie intraveineuse provoque la mort de 100 % des animaux dans les 15 minutes qui suivent son injection. La mort survient par oedème pulmonaire dû à l'hypertension artérielle induite par la stimulation des récepteurs adrénergiques. L'administration préalable de substances α-adrénolytiques par voie orale permet de réduire la toxicité de la noradrénaline. Les produits sont administrés par voie orale à des temps variables entre 30 minutes et 6 heures avant l'injection intraveineuse (I.V.) de noradrénaline (0,4 mg/kg⁻¹).

For data set [4], the system named is pressions artérielle et urétrale. Nature of the data set: In vivo α-blocking activity at urethral and vascular level: noradrenaline-induced rise of arterial and urethral pressure in the anaesthetised rabbit. The arrangement: species or system lapin. The note with it: product i.v. The source says: L'activité α-bloquante "in vivo" aux niveaux urétral et vasculaire chez le lapin anesthésié a été recherchée par administration intraveineuse des produits B 1007, B 1024, B 1058, B 1125 et B 1134.
L'injection intraveineuse de noradrénaline provoque chez le lapin une augmentation dose dépendante des pressions artérielle et urétrale. Les substances α-bloquantes injectées par voie intraveineuse antagonisent en fonction des doses ces augmentations de pression. On calcule la dose inhibitrice 50 % (D.I. 50) définie comme étant la dose de produit provoquant une diminution de 50 % des effets de la noradrénaline sur les pressions artérielle et urétrale.

For data set [5], the system named is hyperpression urétrale neurogène et pression artérielle. The data set can be described thus: Urethral specificity in the anaesthetised dog: neurogenic urethral hyperpressure (hypogastric nerve stimulation) and arterial pressure. In kind it is in vivo, chien. The settings on record: product i.v.; for Hypotension artérielle DE. 20: dose causing 20 % arterial hypotension; for Hyperpression urétrale neurogène DI. 50: electrical stimulation of the hypogastric nerve. From the text:
L'effet des produits B 1007, B 1024, B 1125 et B 1134, injectés par voie intraveineuse sur l'hyperpression urétrale neurogène et sur la pression artérielle, a été recherché chez le chien anesthésié.
La stimulation électrique du nerf hypogastrique provoque une augmentation de la pression urétrale par libération de noradrénaline à partir des fibres sympathiques du nerf.
Les substances α-bloquantes antagonisent en fonction des doses ces augmentations de pression urétrale et provoquent une hypotension artérielle par action bloquante au niveau des récepteurs vasculaires.
On calcule la dose qui inhibe de 50 % (DI. 50) les effets de la stimulation du nerf hypogastrique sur la pression urétrale et la dose qui provoque une hypotension artérielle de 20 % (DE. 20).

For `CC(=O)Oc1cc(C(C)C)c(OCCN(C)C)cc1C` [Thymoxamine, reference compound], in data set [1], the “DL 50 I.V.” value is on record as 72,5 mg/kg⁻¹ and the “DL 50 P.O.” value was found to be 300 mg/kg⁻¹. Moreover, the “Action α-bloquante vis-à-vis de la noradrénaline sur canal déférent isolé pA₂” value in data set [2] is reported as 7,25. Besides, the “Action α-bloquante vis-à-vis de la noradrénaline sur urètre isolé pD'₂” value in the data set with urètre isolé du lapin was 7,03. The “% de protection contre la mort” value in data set [3] (50 mg/kg⁻¹ p.o.) was 80%. In data set [4], the “D.I. 50 vis-à-vis de l'hypertension artérielle” value was 2,72 mg/kg⁻¹ and the “D.I. 50 vis-à-vis de l'hypertension urétrale” value is recorded as 0,5 mg/kg⁻¹. Besides, in data set [5], the “Hypotension artérielle DE. 20” value was 0,27 mg/kg⁻¹ and the “Hyperpression urétrale neurogène DI. 50” value is 0,09 mg/kg⁻¹.

Regarding `CCCC(=O)Oc1cc(C(C)C)c(OCCN2CCCC2)cc1C.Cl` [B 1132, chlorhydrate du butyryloxy-2[(pyrrolidinyl1)-2-éthoxy]-5 p-cymène], the “DL 50 P.O.” value in data set [1] is “≃ 500 mg/kg⁻¹”. Moreover, the “Action α-bloquante vis-à-vis de la noradrénaline sur canal déférent isolé pA₂” value in data set [2] is 7,35. The “Action α-bloquante vis-à-vis de la noradrénaline sur urètre isolé pD'₂” value in the data set on urètre isolé du lapin was 6,0. Besides, the “% de protection contre la mort” value in data set [3] (50 mg/kg⁻¹ p.o.) came to 90%.

For `CC(=O)Oc1cc(C(C)C)c(OCCN2CCCC2)cc1C.Cl` [B 1024, chlorhydratede l'acétoxy-2[(pyrrolidinyl-1)-2-éthoxy]-5 p-cymène], in data set [1], the “DL 50 I.V.” value was 18 mg/kg⁻¹ and the “DL 50 P.O.” value amounted to 100 mg/kg⁻¹. Further, the “Action α-bloquante vis-à-vis de la noradrénaline sur canal déférent isolé pA₂” value in data set [2] is on record as 6,98. For the same compound, the “Action α-bloquante vis-à-vis de la noradrénaline sur urètre isolé pD'₂” value with urètre isolé du lapin is given as 6,38. In addition, the “% de protection contre la mort” value in data set [3] (25 mg/kg⁻¹ p.o.) turned out to be 70%. Also, in data set [4], the “D.I. 50 vis-à-vis de l'hypertension artérielle” value is given as 4,14 mg/kg⁻¹ and the “D.I. 50 vis-à-vis de l'hypertension urétrale” value is reported as 0,23 mg/kg⁻¹. Further, in data set [5], the “Hypotension artérielle DE. 20” value worked out at 8 mg/kg⁻¹ and the “Hyperpression urétrale neurogène DI. 50” value is reported as 0,07 mg/kg⁻¹.

As for `Cc1cc(OCCN2CCCC2)c(C(C)C)cc1O.Cl` [B 1058, chlorhydratede l'hydroxy-2[(pyrrolidinyl-1)-2-éthoxy]-5 p-cymène], in data set [1], the “DL 50 I.V.” value was found to be 17 mg/kg⁻¹ and the “DL 50 P.O.” value is listed as 80 mg/kg⁻¹. In data set [2], the “Action α-bloquante vis-à-vis de la noradrénaline sur canal déférent isolé pA₂” value is recorded as 7,18. The “Action α-bloquante vis-à-vis de la noradrénaline sur urètre isolé pD'₂” value with urètre isolé du lapin is listed as 6,69. In addition, the “% de protection contre la mort” value in data set [3] (50 mg/kg⁻¹ p.o.) came out at 90%. Besides, in data set [4], the “D.I. 50 vis-à-vis de l'hypertension artérielle” value was 1,22 mg/kg⁻¹ and the “D.I. 50 vis-à-vis de l'hypertension urétrale” value is listed as 0,13 mg/kg⁻¹.

`Cc1ccc(C(C)C)c(OCCN2CCCC2)c1.Cl` [B 1007, chlorhydrate du [(pyrrolidinyl-1)-2-éthoxy]-3 p-cymène]: in data set [1], the “DL 50 I.V.” value is recorded as 75 mg/kg⁻¹ and the “DL 50 P.O.” value was 330 mg/kg⁻¹. Also, the “Action α-bloquante vis-à-vis de la noradrénaline sur canal déférent isolé pA₂” value in data set [2] is 6,74. The “Action α-bloquante vis-à-vis de la noradrénaline sur urètre isolé pD'₂” value in the data set on urètre isolé du lapin was 6,88. The “% de protection contre la mort” value in data set [3] (50 mg/kg⁻¹ p.o.) came to 60%. Moreover, in data set [4], the “D.I. 50 vis-à-vis de l'hypertension artérielle” value is reported as 7,63 mg/kg⁻¹ and the “D.I. 50 vis-à-vis de l'hypertension urétrale” value is listed as 0,34 mg/kg⁻¹. Besides, in data set [5], the “Hypotension artérielle DE. 20” value is on record as 2 mg/kg⁻¹ and the “Hyperpression urétrale neurogène DI. 50” value is on record as 0,35 mg/kg⁻¹.
